Test results as given in paper PMC10999085, “Synthesis, anticancer evaluation, molecular docking and ADME study of novel pyrido[4ʹ,3ʹ:3,4]pyrazolo[1,5-a]pyrimidines as potential tropomyosin receptor kinase A (TrKA) inhibitors” (BMC Chemistry, 2024).
≈ marks a conversion by molar mass, not a printed value.

Experiments:
MCF7 cell line = test: MTT assay, MCF7 cell line; type: cell-based, human; conditions: 24 hr treatment, in % (unit assumed); for Cytotoxicity at 5 µg/l: MCF7, 5 µg/l; for Cytotoxicity at 10 µg/l: MCF7, 10 µg/l; for Cytotoxicity at 20 µg/l: MCF7, 20 µg/l
Protocol: (§1) Determination of the inhibitory effects of compounds on cell growth was performed through the MTT assay. This colorimetric assay is based on the conversion of the yellow tetrazolium bromide (MTT) to a purple formazan derivative by mitochondrial succinate dehydrogenase in viable cells. The protocol was discussed in details in Additional file 1.
(§2) Compounds 1, 4a,b, 7a–c, 7k, l, 9a–c, 14a, 15b, 16a–c were selected to be investigated against three human cancer cell lines MCF7, HepG2 and HCT116 cell lines using MTT assay using doxorubicin as the standard drug. Each point is the mean ± SD (standard deviation) of three independent experiments performed in triplicate, using the prism software program (integrated Graphpad software, version 3).
(§3) Cell lines were used to measure the cell growth effects of the compounds using the MTT assay. This colorimetric assay is depend on the conversion of the yellow tetrazolium bromide (MTT) to a purple formazan derivative by mitochondrial succinate dehydrogenase in living cells. Cell lines were cultured in RPMI-1640 medium supplemented with 10% fetal bovine serum. The antibiotics added were 100 units/ml penicillin and 100 µg/ml streptomycin at 37 °C in a 5% CO2 incubator. Cell lines were seeded in a 96-well plates at a density of 1.0x10^4 cells/well and cultured at 37 °C for 48 h under 5% CO2. After incubation, the cells were treated with different concentrations of compounds and incubated for 24 hr. After 24 hr of drug treatment, 20 µl of MTT solution at 5 mg/ml was added to each well and incubated for 4 hr. 100 µl of dimethyl sulfoxide (DMSO) was added into each well to dissolve the purple formazan formed. The colorimetric assay was measured and recorded at absorbance of 570 nm using a plate reader (EXL 800, USA). Relative cell viability (%) was calculated as (A570 of treated sample/A570 of untreated sample) x 100 [36, 37].

HepG2 cell line = test: MTT assay, HepG2 cell line; type: cell-based, human; conditions: MTT, 24 hr treatment, in % (unit assumed); for Cytotoxicity at 5 µg/l: HepG2, 5 µg/l; for Cytotoxicity at 10 µg/l: HepG2, 10 µg/l; for Cytotoxicity at 20 µg/l: HepG2, 20 µg/l
Protocol: as §1, §2, §3

HCT-116 cell line = test: MTT assay, HCT-116 cell line; type: cell-based, human; conditions: for Cytotoxicity at 5 µg/l: HCT116, 5 µg/l; for Cytotoxicity at 5 µg/l / Cytotoxicity at 10 µg/l / Cytotoxicity at 20 µg/l: MTT, 24 hr treatment, in % (unit assumed); for Cytotoxicity at 10 µg/l: HCT116, 10 µg/l; for Cytotoxicity at 20 µg/l: HCT116, 20 µg/l
Protocol: as §1, §2, §3

Cc1cc(O)n2nc3c(c2n1)C(=O)NC(=O)C3 [Compound 14a, 4-Hydroxy-2-methylpyrido[4ʹ,3ʹ:3,4]pyrazolo[1,5-a]pyrimidine-8,10(7H,9H)-dione]
Cytotoxicity at 5 µg/l (MCF7 cell line): 25.14
Cytotoxicity at 10 µg/l (MCF7 cell line): 48.62
Cytotoxicity at 20 µg/l (MCF7 cell line): 77.19
Cytotoxicity at 5 µg/l (HepG2 cell line): 11.39
Cytotoxicity at 10 µg/l (HepG2 cell line): 40.75
Cytotoxicity at 20 µg/l (HepG2 cell line): 83.75
Cytotoxicity at 5 µg/l (HCT-116 cell line): 28.84
Cytotoxicity at 10 µg/l (HCT-116 cell line): 55.79
Cytotoxicity at 20 µg/l (HCT-116 cell line): 58.72
melting point: > 360 °C

O=C1NC(=O)c2c(nn3c(-c4ccccc4)cc(-c4ccccc4)nc23)C1=Cc1ccccc1 [Compound 7k, 7-Benzylidene-2,4-diphenylpyrido[4ʹ,3ʹ:3,4]pyrazolo[1,5-a]pyrimidine-8,10(7H,9H)-dione]
Cytotoxicity at 5 µg/l (MCF7 cell line): 36.19
Cytotoxicity at 10 µg/l (MCF7 cell line): 55.16
Cytotoxicity at 20 µg/l (MCF7 cell line): 71.12
Cytotoxicity at 5 µg/l (HepG2 cell line): 41.84
Cytotoxicity at 10 µg/l (HepG2 cell line): 88.59
Cytotoxicity at 20 µg/l (HepG2 cell line): 90.19
Cytotoxicity at 5 µg/l (HCT-116 cell line): 39.48
Cytotoxicity at 10 µg/l (HCT-116 cell line): 46.55
Cytotoxicity at 20 µg/l (HCT-116 cell line): 62.92
melting point: 275 °C

O=C1Cc2nn3c(-c4ccccc4)cc(-c4ccccc4)nc3c2C(=O)N1 [Compound 4b, 2,4-Diphenylpyrido[4ʹ,3ʹ:3,4]pyrazolo[1,5-a]pyrimidine-8,10(7H,9H)-dione]
Cytotoxicity at 5 µg/l (MCF7 cell line): 22.19
Cytotoxicity at 10 µg/l (MCF7 cell line): 55.85
Cytotoxicity at 20 µg/l (MCF7 cell line): 70.37
Cytotoxicity at 5 µg/l (HepG2 cell line): 38.14
Cytotoxicity at 10 µg/l (HepG2 cell line): 43.81
Cytotoxicity at 20 µg/l (HepG2 cell line): 76.43
Cytotoxicity at 5 µg/l (HCT-116 cell line): 7.31
Cytotoxicity at 10 µg/l (HCT-116 cell line): 21.33
Cytotoxicity at 20 µg/l (HCT-116 cell line): 66.23
melting point: 300 °C

Cc1cc(C)n2nc3c(c2n1)C(=O)NC(=O)C3=Cc1ccc(Cl)cc1 [Compound 7c]
Cytotoxicity at 5 µg/l (MCF7 cell line): 40.12
Cytotoxicity at 10 µg/l (MCF7 cell line): 69.00
Cytotoxicity at 20 µg/l (MCF7 cell line): 92.48
Cytotoxicity at 5 µg/l (HepG2 cell line): 35.08
Cytotoxicity at 10 µg/l (HepG2 cell line): 41.65
Cytotoxicity at 20 µg/l (HepG2 cell line): 67.89
Cytotoxicity at 5 µg/l (HCT-116 cell line): 50.56
Cytotoxicity at 10 µg/l (HCT-116 cell line): 68.21
Cytotoxicity at 20 µg/l (HCT-116 cell line): 68.85
IC50 (HCT-116 cell line; Homo sapiens, HCT-116, HCT116, MTT, read-out: IC50 (drug concentration that inhibited 50% of cell proliferation)): 4.07 ng/mL (≈ 0.0115 µM)
melting point: 260 °C

Cc1ccc(NN=C2C(=O)NC(=O)c3c2nn2c(O)cc(C)nc32)cc1 [Compound 16b, 4-Hydroxy-2-methyl-7-(2-(p-tolyl)hydrazono)pyrido[4ʹ,3ʹ:3,4]pyrazolo[1,5-a]pyrimidine-8,10(7H,9H)-dione]
Cytotoxicity at 5 µg/l (MCF7 cell line): 54.13
Cytotoxicity at 10 µg/l (MCF7 cell line): 55.27
Cytotoxicity at 20 µg/l (MCF7 cell line): 80.56
Cytotoxicity at 5 µg/l (HepG2 cell line): 18.01
Cytotoxicity at 10 µg/l (HepG2 cell line): 42.54
Cytotoxicity at 20 µg/l (HepG2 cell line): 50.18
Cytotoxicity at 5 µg/l (HCT-116 cell line): 23.18
Cytotoxicity at 10 µg/l (HCT-116 cell line): 52.73
Cytotoxicity at 20 µg/l (HCT-116 cell line): 85.28
melting point: 330 °C

Cc1cc(C)n2nc3c(c2n1)C(=O)NC(=O)C3 [Compound 4a, 2,4-Dimethylpyrido[4ʹ,3ʹ:3,4]pyrazolo[1,5-a]pyrimidine-8,10(7H,9H)-diones]
Cytotoxicity at 5 µg/l (MCF7 cell line): 35.61
Cytotoxicity at 10 µg/l (MCF7 cell line): 74.99
Cytotoxicity at 20 µg/l (MCF7 cell line): 84.71
Cytotoxicity at 5 µg/l (HepG2 cell line): 15.91
Cytotoxicity at 10 µg/l (HepG2 cell line): 60.95
Cytotoxicity at 20 µg/l (HepG2 cell line): 82.16
Cytotoxicity at 5 µg/l (HCT-116 cell line): 56.23
Cytotoxicity at 10 µg/l (HCT-116 cell line): 71.78
Cytotoxicity at 20 µg/l (HCT-116 cell line): 84.77
melting point: 330 °C

Cc1cc(C)n2nc3c(c2n1)C(=O)NC(=O)C3=Cc1ccccc1 [Compound 7a, 7-Benzylidene-2,4-dimethylpyrido[4ʹ,3ʹ:3,4]pyrazolo[1,5-a]pyrimidine-8,10(7H,9H)-dione]
Cytotoxicity at 5 µg/l (MCF7 cell line): 30.13
Cytotoxicity at 10 µg/l (MCF7 cell line): 45.66
Cytotoxicity at 20 µg/l (MCF7 cell line): 66.12
Cytotoxicity at 5 µg/l (HepG2 cell line): 38.17
Cytotoxicity at 10 µg/l (HepG2 cell line): 42.56
Cytotoxicity at 20 µg/l (HepG2 cell line): 76.04
Cytotoxicity at 5 µg/l (HCT-116 cell line): 50.82
Cytotoxicity at 10 µg/l (HCT-116 cell line): 84.52
Cytotoxicity at 20 µg/l (HCT-116 cell line): 91.78
melting point: 240 °C

Cc1cc(C)n2nc3c(c2n1)C(=O)NC(=O)C3=NNc1ccccc1 [Compound 9a, 2,4-Dimethyl-7-(2-phenylhydrazono)pyrido[4ʹ,3ʹ:3,4]pyrazolo[1,5-a]pyrimidine-8,10(7H,9H)-dione]
Cytotoxicity at 5 µg/l (MCF7 cell line): 36.10
Cytotoxicity at 10 µg/l (MCF7 cell line): 49.11
Cytotoxicity at 20 µg/l (MCF7 cell line): 75.34
Cytotoxicity at 5 µg/l (HepG2 cell line): 13.11
Cytotoxicity at 10 µg/l (HepG2 cell line): 49.16
Cytotoxicity at 20 µg/l (HepG2 cell line): 79.17
Cytotoxicity at 5 µg/l (HCT-116 cell line): 34.38
Cytotoxicity at 10 µg/l (HCT-116 cell line): 55.47
Cytotoxicity at 20 µg/l (HCT-116 cell line): 65.98
melting point: 300 °C

COc1ccc(C=C2C(=O)NC(=O)c3c2nn2c(-c4ccccc4)cc(-c4ccccc4)nc32)cc1 [Compound 7l]
Cytotoxicity at 5 µg/l (MCF7 cell line): 40.19
Cytotoxicity at 10 µg/l (MCF7 cell line): 52.28
Cytotoxicity at 20 µg/l (MCF7 cell line): 97.26
Cytotoxicity at 5 µg/l (HepG2 cell line): 40.25
Cytotoxicity at 10 µg/l (HepG2 cell line): 71.84
Cytotoxicity at 20 µg/l (HepG2 cell line): 96.62
Cytotoxicity at 5 µg/l (HCT-116 cell line): 57.14
Cytotoxicity at 10 µg/l (HCT-116 cell line): 61.58
Cytotoxicity at 20 µg/l (HCT-116 cell line): 91.59
melting point: 315 °C

COc1cc(C=C2C(=O)NC(=O)c3c2nn2c(C)cc(C)nc32)cc(OC)c1OC [Compound 7f, 2,4-Dimethyl-7-(3,4,5-trimethoxybenzylidene)pyrido[4ʹ,3ʹ:3,4]pyrazolo[1,5-a]pyrimidine-8,10(7H,9H)-dione]
melting point: 240 °C

O=C1NC(=O)c2c(nn3c(-c4ccccc4)cc(-c4ccccc4)nc23)C1=Cc1cccs1 [Compound 7s, 2,4-Diphenyl-7-(thiophen-2-ylmethylene)pyrido[4ʹ,3ʹ:3,4]pyrazolo[1,5-a]pyrimidine-8,10(7H,9H)-dione]
melting point: 315 °C

O=C1NC(=O)c2c(nn3c(-c4ccccc4)cc(-c4ccccc4)nc23)C1=NNc1ccc(Cl)cc1 [Compound 11d, 7-(2-(4-Chlorophenyl)hydrazono)-2,4-diphenylpyrido[4ʹ,3ʹ:3,4]pyrazolo[1,5-a]pyrimidine-8,10(7H,9H)-dione]
melting point: 335 °C

COc1ccc(C=C2C(=O)NC(=O)c3c2nn2c(O)cc(-c4ccccc4)nc32)cc1 [Compound 15e, 4-Hydroxy-7-(4-methoxybenzylidene)-2-phenylpyrido[4ʹ,3ʹ:3,4]pyrazolo[1,5-a]pyrimidine-8,10(7H,9H)-dione]
melting point: 300 °C

O=C1Cc2nn3c(O)cc(-c4ccccc4)nc3c2C(=O)N1 [Compound 14b, 4-Hydroxy-2-phenylpyrido[4ʹ,3ʹ:3,4]pyrazolo[1,5-a]pyrimidine-8,10(7H,9H)-dione]
melting point: 310 °C

COc1cc(C=C2C(=O)NC(=O)c3c2nn2c(-c4ccccc4)cc(-c4ccccc4)nc32)cc(OC)c1OC [Compound 7p, 2,4-Diphenyl-7-(3,4,5-trimethoxybenzylidene)pyrido[4ʹ,3ʹ:3,4]pyrazolo[1,5-a]-pyrimidine-8,10(7H,9H)-dione]
melting point: 315 °C
